Measured values published in publication PMC5641120, “Small-molecule inhibitors of PD-1/PD-L1 immune checkpoint alleviate the PD-L1-induced exhaustion of T-cells” (Oncotarget, 2017).
Blank lines part the entries; values can stand above or below the molecule they belong to.

Tests used:
human PD-L1 [1] = molecular target: T1, human PD-L1 (Homo sapiens, UniProt Q9NZQ7); assay: 1H-15N HMQC NMR titration of PD-L1; assay type: binding; details: 15N labeled PD-L1, line broadening upon compound addition
T1 construct: human PD-L1 (residues 18–134, C-terminal His-tag); His-tag (C); made in house
T1 sequence (Q9NZQ7 18-134): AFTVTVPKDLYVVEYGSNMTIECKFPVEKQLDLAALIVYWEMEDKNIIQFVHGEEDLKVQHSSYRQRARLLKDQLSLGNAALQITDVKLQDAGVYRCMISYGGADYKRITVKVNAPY
Method: Based on the two recent Bristol-Myers Squibb patents, the selection of the BMS compounds was done to obtain high diversity of the chemical structures along all modifications of distal, flexible moieties exposed to the solvent (Figure 1A). The compounds were synthesized as described previously with modifications. All compounds were tested for the interaction with PD-L1 using the ^1H-^15N HMQC NMR titration experiment with positive results, as reported elsewhere and in this manuscript (see below). In order to verify the blockade of the PD-1/PD-L1 interaction by the compounds an NMR-based AIDA was performed. Upon the PD-L1 binding the broadening of ^1H-^15N resonance signals of the ^15N labeled PD-1 is observed due to an increased transverse relaxation rate of the higher molecular weight entities. […] All the compounds efficiently disrupted the complex formed by human PD-1 and PD-L1 proteins, as visualized by the restoration of narrow ^1H-^15N signals of PD-1 ([26] and (Figure 1B)).
For further compound development it is of high importance to define the minimal fragments essential for the binding to the target protein. For this, BMS-1166 and its fragments were tested for interaction with PD-L1 using NMR method. From the six decomposition fragments tested, four retained PD-L1 binding potential (Figure 5).
Uniform ^15N labelling was obtained by expressing proteins in the M9 minimal medium containing ^15NH4Cl as the sole nitrogen source. For NMR measurements the buffer was exchanged by gel filtration to PBS pH 7.4 (PD-L1) or 25 mM sodium phosphate containing 100 mM NaCl pH 6.4 (PD-1). 10% (v/v) of D2O was added to the samples to provide the lock signal. All spectra were recorded at 300K using a Bruker Avance III 600 MHz spectrometer. The interaction of the compounds with PD-L1 was evaluated by monitoring the perturbations in chemical shifts of NMR resonances in the ^1H-^15N 2D HMQC upon titration with the compound. The ability of tested compounds to dissociate PD-L1/PD-1 was evaluated using the Antagonist Induced Dissociation Assay (AIDA). In brief, ^15N-labeled PD-1 (0.2 mM) was slightly overtitrated with the unlabeled PD-L1. The compounds were aliquoted into the resulting mixture. During the experiment the ^1H-^15N signals were monitored by the HMQC.

human PD-L1 [2] = molecular target: T1, human PD-L1; set-up: method as in PMID 27083005; details: shown previously; cited from earlier work
human PD-1/PD-L1 complex = molecular target: T2, human PD-1/PD-L1 complex (Homo sapiens, UniProt Q9NZQ7); set-up: method as in PMID 27083005; details: shown previously; cited from earlier work
T2 construct: human PD-L1 (residues 18–134, C-terminal His-tag); His-tag (C); made in house
T2 sequence (Q9NZQ7 18-134, one chain of several): as the sequence (Q9NZQ7 18-134) above

[3] = test system: PD-1 Effector Cells (modified Jurkat T cells, ECs); assay: Cytotoxicity (metabolic activity assay) against PD-1 Effector Cells; details: ECs, 48 h treatment, metabolic activity assay
Method: (§2) To define the maximum admissible concentrations of BMS compounds for the use in the cell-based assays, the toxicity of the compounds was evaluated with the use of metabolic activity assay. For this, modified Jurkat T cells (ECs) used in all further assays were exposed to the increasing concentration of the tested compounds for 48 h.
(§3) Figure 2 Cytotoxicity and activity of BMS compounds in PD-1/PD-L1 checkpoint assay (A) Cytotoxicity of BMS compounds against the PD-1 Effector Cells was tested using metabolic activity assay following the 48 h treatment of the cells with the indicated compounds. […] The graphs present relative luminescence normalized to the DMSO-treated controls and are representative of the three independent experiments. (D) The result of the fitting of Hill model to experimental data presented on panels B and C. EC50 values represent half maximal effective concentrations, and RLUmax values represent maximal relative luminescence values, and illustrate the potency of the listed molecules in restoring the activity of ECs in the assay.
(§4) 5 000 ECs were seeded on transparent 96-well plates and cultured for 48 h in the presence of increasing concentrations of the BMS compounds or DMSO as a control (the concentration of DMSO was kept constant in all samples). Following the treatment, a metabolic activity test was performed with the use of Biolog Redox Dye Mix MB (BioLog), according to the manufacturer's instructions.

[4] = molecular target: T3, sPD-L1 interaction with PD-1 receptor exposed at the cell surface (Homo sapiens, UniProt Q9NZQ7); assay: Flow cytometry binding of fluorescently labeled sPD-L1 (PD-L1-Atto) to PD-1 expressing cells; assay type: cell-based; details: PD-L1-Atto 1.5 μM pre-incubated with 1 μM BMS compound or 125 μg/ml antibody
T3 construct: made in house; PD-1 stably overexpressed on Jurkat PD-1 Effector Cells from Promega
T3 sequence (Q9NZQ7 18-134): as above
Method: To test if the observed effect of BMS compounds was directly associated with the decreased sPD-L1 recruitment to the cell surface of the PD-1-expressing cells, a His-tagged sPD-L1 was labeled with the Ni-NTA-conjugated fluorescent dye and flow cytometry analysis was performed. When ECs were contacted with labeled sPD-L1, a clear staining was observed (Figure 3B).
Binding of sPD-L1 (aa 18–134) to ECs was evaluated by flow cytometry. The His-tagged PD-L1 protein or its mutants were stained with NTA-Atto 647 N fluorescent dye (Sigma Aldrich) for 2 h at 22°C, at 8:1 molar ratio (protein:dye). PD-L1-Atto was formulated in 150 μl PBS with the tested compounds or antibodies. The samples were incubated for 30 min at 4°C in the dark. Meanwhile, ECs were centrifuged, washed with PBS and suspended in fresh PBS at concentration of 1 × 10^6 cells per ml. 50 μl of ECs was added to each sample and incubated on ice for additional 60 min. The final concentrations of the components were: 25 μg/ml of PD-L1 (1.5 μM), 125 μg/ml the anti-PD-L1 antibodies and control antibodies and 1 μM of the BMS compounds. The samples were analyzed using the BD FACS Verse flow cytometer and BD FACSuite v1.0.6 software.

[5] = test system: PD-1/PD-L1 immune checkpoint; assay: PD1/PD-L1 checkpoint assay (ECs co-cultured with aAPCs, NFAT-luciferase reporter); assay type: cell-based, human; details: for effect on luciferase reporter expression (in words): ECs co-cultured with aAPCs; for RLUmax (maximal relative luminescence): Hill fit, luminescence normalized to DMSO-treated controls; for EC50: Hill fit of luciferase activity, 6 h co-culture of ECs and aAPCs
Excerpt: A T lymphocyte-like cell line (Jurkat) modified to constitutively express PD-1 and carrying a luciferase reporter gene driven by TCR-inducible NFAT response element (Effector Cells, ECs) was used in T cell activation experiments. When antigen-presenting surrogate CHO cells, constitutively expressing the TCR agonist and PD-L1 (aAPCs) are presented to these ECs in co-culture, TCR signaling is repressed by PD-1 and the reporter remains silenced. Agents efficiently interfering with the PD-1/PD-L1 interaction activate the expression of the reporter gene resulting in the increase in luminescence intensity.
To verify the potency of BMS compounds in the inhibition of the PD-1/PD-L1 interactions, a cell-based model of the PD-1/PD-L1 immune checkpoint blockade was used. In the assay, two model cell lines are utilized: the artificial Antigen-Presenting Cells (PD-L1^+ aAPC/CHO-K1 cells, called aAPCs) overexpressing TCR ligand and PD-L1, and T cell surrogate, a modified Jurkat T cell line overexpressing PD-1 and carrying a luciferase reporter under the control of NFAT promoter (PD-1 Effector Cells, called ECs) [30]. […] Additionally, the cells were propagated in a constant presence of Hygromycin B (50 μg/ml) and G418 (250 μg/ml) to provide a stable expression of the introduced genetic constructs. The two latter antibiotics were omitted in the experiments. Overexpression of PD-1 on ECs and PD-L1 on aAPCs was verified by flow cytometry (not shown) and the presence of the luciferase-expressing gene was verified by monitoring luciferase activity following anti-CD3 antibody stimulation. Antibiotic selection, flow cytometry and reporter expression served as cell line authentication method. The cells were periodically tested and found negative for Mycoplasma contamination using PCR-based method [31].
The aAPCs were seeded in white 96-well plates at the density of 10 000 per well in the culture medium 24 h prior to the assay. […] By this, the concentration of DMSO was kept constant in all samples. 95 μl of the medium was removed from the wells and the cells were overlaid with 40 μl of the compound dilutions. […] Following 6 h incubation at 37°C, the plates were equilibrated at room temperature for 10 min and 80 μl of the Bio-Glo reagent (Promega) was added to each well. After incubation for 10 min, luminescence was quantified using FlexStation 3 (Molecular Devices). Half maximal effective concentrations (EC50) and maximal luminescence values (RLUmax) were determined by fitting the Hill equation to the experimental data.

[6] = test system: PD-L1 aAPC/CHO-K1 cells (aAPCs); assay: Toxicity towards aAPCs; assay type: cell-based; details: modified CHO-K1 cells (aAPCs), 48 h treatment
PD-1/sPD-L1 = PD-1/sPD-L1 effector assay (anti-CD3 activated ECs, luciferase); assay type: cell-based, human; details: anti-CD3, sPD-L1 0.6 μM, BMS compounds 0.12-3 μM; highest concentrations = 2- and 5-fold molar excess over sPD-L1; 24 h
Method: To evaluate the potential of BMS compounds in abrogating the inhibitory effect of sPD-L1 on the activation of T cells, sPD-L1 was pre-incubated with tested compounds and presented to ECs together with the anti-CD3-activating antibody.
For the evaluation of the BMS impact on T cell inhibition by soluble PD-L1, the ECs were stimulated with the anti-CD3 antibody in the presence of the recombinant human sPD-L1. For this, the 96-well white flat bottom plates were coated overnight at 4°C with 5 μg/ml of the anti-CD3 antibody or the isotype control solution in PBS. […] Then, 15 μl of the solution was added to each well of the antibody-coated plate. ECs were centrifuged and diluted to 50 000 per ml, and 60 μl of the cell solution was added to each well. The final concentration of sPD-L1 was 10 μg/ml (0.6 μM). The final concentrations of the BMS compounds were: 0.12, 0.3, 1.2 and 3 μM, giving the following BMS:sPD-L1 molar ratios: 1:5, 1:2, 2:1 and 5:1. The cells were cultured for 24 h and the luciferase activity assay was performed using the Bio-Glo Luciferase Assay System (Promega) according to the manufacturer's instructions.

[7] = Cytotoxicity (metabolic activity assay) against PD-1 Effector Cells; details: human, PD-1 Effector Cells (modified Jurkat T cells, ECs)
Method: as §2, §3, §4

sPD-L1 [8] = molecular target: T4, sPD-L1 (Homo sapiens, UniProt Q9NZQ7); assay: Complex analysis by gel filtration (size exclusion chromatography); details: inhibitor:protein 3:1 molar ratio
T4 construct: human PD-L1 (residues 18–134, C-terminal His-tag); His-tag (C); made in house
T4 sequence (Q9NZQ7 18-134): as above
Method: (§1) The formation of solution-stable PD-L1 dimers in the presence of BMS compounds was characterized previously for BMS-202 [26]. The crystal structures of BMS-1001 and −1166 bound to PD-L1 indicated similar properties of the compounds, but this required verification by in-solution assays. […] This was verified by a crosslinking experiment. sPD-L1 preincubated in the presence of a cross-linking agent (bis(sulfosuccinimidyl)suberate, BS3) migrated in SDS-PAGE as a single band corresponding to […] protein.
Superdex S75 10/30 HR column was equilibrated with 10 mM Tris pH 8.0 containing 20 mM NaCl. The column was calibrated with globular protein standards. The retention time of hPD-L1 (4 mg/ml) was determined. hPD-L1/inhibitor complexes were formed at 3:1 (inhibitor:protein) molar ratio, incubated for 15 min at room temperature and clarified by centrifugation for 10 min at 15 000 × g. The samples were analyzed in the same manner as the apo-hPD-L1.

sPD-L1 [9] = molecular target: T4, sPD-L1; assay: BS3 cross-linking experiment (SDS-PAGE); details: hPD-L1 10 μM, compound 1:1 molar ratio
Method: as §1
hPD-L1 was concentrated to 10 μM in PBS pH 7.4 and mixed with BMS-1001 or BMS-1166 in the 1:1 molar ratio, followed by the addition of the BS3 cross-linking reagent at 0.25, 0.5 or 1mM final concentration (Thermo Scientific). After 30-min incubation at room temperature, the reaction was quenched by the addition of Tris pH 7.5 to the final concentration of 25 mM. Control sample contained hPD-L1 and 1 mM BS3 reagent. The samples were analyzed by SDS-PAGE.

- interaction with PD-L1 (1H-15N HMQC NMR) (human PD-L1 [1]): active
Molecule: Cc1c(CO)cccc1-c1ccc2c(c1)OCCO2 [compound 4]

Molecule: Cc1c(COc2ccc(CN3CCCCC3C(=O)O)cc2Br)cccc1-c1ccccc1 (stereo not drawn) [BMS-8]
- binding to PD-L1 (human PD-L1 [2]): bind to PD-L1
- dissociation of human PD-1/PD-L1 complex in vitro (human PD-1/PD-L1 complex): efficiently dissociate the human PD-1/PD-L1 complex
- toxicity (in words) [3]: moderate toxicity

- interaction with PD-L1 (1H-15N HMQC NMR) (human PD-L1 [1]): not-active
Molecule: Cc1cccc(CBr)c1C [compound 6]

Molecule: Cc1c(COc2cc(OCc3cccc(C#N)c3)c(CN3C[C@H](O)C[C@@H]3C(=O)O)cc2Cl)cccc1-c1ccc2c(c1)OCCO2 [BMS-1166]
- staining of ECs by labeled sPD-L1 (in words) [4]: significantly decreased the intensity of staining
- interaction with PD-L1 (1H-15N HMQC NMR) (human PD-L1 [1]): induced linewidth broadening
- interaction with PD-L1 (1H-15N HMQC NMR) (human PD-L1 [1]; listed as 1): active
- effect on luciferase reporter expression (in words) [5]: dose-dependently induced the activity of luciferase
- RLUmax (maximal relative luminescence) [5]: 1.72 ± 0.03
- EC50 ([5]; Homo sapiens): 276 ± 29 nM
- toxicity (in words) [6]: Low toxicity

- staining of ECs by labeled sPD-L1 (in words) [4]: significantly decreased the staining
- EC50 [5]: 0.333 ± 0.068 nM
- RLUmax (maximal relative luminescence) [5]: 2.94 ± 0.08
Molecule: durvalumab: anti-PD-L1 antibody

Molecule: COc1cc(OCc2cccc(-c3ccccc3)c2C)cc(OC)c1CN[C@@H](CO)C(C)C [BMS-242]
- restoration of sPD-L1-suppressed activation of ECs (in words) (PD-1/sPD-L1): unspecific decrease in the readout level
- EC50 at 48 h [7]: 3000 to 6000 nM

- effect on luciferase reporter expression (in words) [5]: did not affect the reporter expression
Molecule: Cc1c(COc2cc(F)c(CNC[C@@H](O)CC(=O)O)cc2F)cccc1-c1ccc2c(c1)OCCO2 [BMS-200]
- toxicity (in words) [3]: moderate toxicity

- staining of ECs by labeled sPD-L1 (in words) [4]: significantly decreased the staining
- EC50 [5]: 0.42 ± 0.049 nM
- RLUmax (maximal relative luminescence) [5]: 2.72 ± 0.02
Molecule: atezolizumab: anti-PD-L1 antibody

- restoration of sPD-L1-suppressed activation of ECs (in words) (PD-1/sPD-L1): abrogated the effect of sPD-L1
Molecule: nivolumab: anti-PD-1 antibody

- interaction with PD-L1 (1H-15N HMQC NMR) (human PD-L1 [1]): active
Molecule: Cc1c(COc2cc(O)c(C=O)cc2Cl)cccc1-c1ccc2c(c1)OCCO2 [compound 3]

- sPD-L1 retention time in size exclusion chromatography (sPD-L1 [8]): significantly shortened
- restoration of sPD-L1-suppressed activation of ECs (in words) (PD-1/sPD-L1): completely restored cell activation
- interaction with PD-L1 (1H-15N HMQC NMR) (human PD-L1 [1]): induced linewidth broadening
- EC50 ([5]; Homo sapiens): 253 ± 120 nM
Molecule: Cc1cc(CN[C@H](CO)C(=O)O)c(OCc2cccc(C#N)c2)cc1OCc1cccc(-c2ccc3c(c2)OCCO3)c1C [BMS-1001]
- staining of ECs by labeled sPD-L1 (in words) [4]: significantly decreased the intensity of staining
- sPD-L1 dimer formation by cross-linking (SDS-PAGE) (sPD-L1 [9]): two bands in SDS-PAGE analysis, corresponding to sPD-L1 monomer and a dimer
- EC50 at 48 h [7]: 33400 nM
- effect on luciferase reporter expression (in words) [5]: dose-dependently induced the activity of luciferase
- RLUmax (maximal relative luminescence) [5]: 1.88 ± 0.16
- toxicity (in words) [6]: Low toxicity

- interaction with PD-L1 (1H-15N HMQC NMR) (human PD-L1 [1]): active
Molecule: Cc1c(COc2cc(OCc3cccc(C#N)c3)c(C=O)cc2Cl)cccc1-c1ccc2c(c1)OCCO2 [compound 2]

Molecule: c1ccc2c(c1)OCCO2 [compound 5]
- interaction with PD-L1 (1H-15N HMQC NMR) (human PD-L1 [1]): not-active
